# Target: T1, Bovine liver catalase (CAT) (Bos taurus, UniProt P00432)
# T1 sequence (P00432 2-527): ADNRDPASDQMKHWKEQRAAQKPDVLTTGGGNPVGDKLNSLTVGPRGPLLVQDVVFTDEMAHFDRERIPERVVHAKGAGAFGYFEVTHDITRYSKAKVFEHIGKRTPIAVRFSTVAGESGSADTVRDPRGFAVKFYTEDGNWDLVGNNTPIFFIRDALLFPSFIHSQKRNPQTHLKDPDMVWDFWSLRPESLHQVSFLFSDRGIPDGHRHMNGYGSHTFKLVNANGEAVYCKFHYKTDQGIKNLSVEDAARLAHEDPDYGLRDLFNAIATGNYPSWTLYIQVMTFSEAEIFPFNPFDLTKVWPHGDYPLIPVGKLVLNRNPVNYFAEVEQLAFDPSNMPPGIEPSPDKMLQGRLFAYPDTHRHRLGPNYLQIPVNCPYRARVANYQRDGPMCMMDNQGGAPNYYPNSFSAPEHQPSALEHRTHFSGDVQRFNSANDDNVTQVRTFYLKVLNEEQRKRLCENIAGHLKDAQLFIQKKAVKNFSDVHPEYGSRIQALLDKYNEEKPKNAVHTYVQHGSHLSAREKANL
# Experiment: H2O2 disappearance at […] nm after […] min preincubation with D-Pen
# Type: biochemical
compound,measurement,value
CC(C)(S)[C@@H](N)C(=O)O [D-penicillamine],IC50,191 ± 26 µM

# Reference: article doi:10.1101/2021.09.16.460603v1 (biorxiv, 2021)
